From US10526316B2, “Quinoxaline and pyridopyrazine derivatives as PI3Kβ inhibitors” (Janssen Pharmaceutica NV, priority 2015, dated 2020)
Like-named read-outs stand apart in the source and are kept apart here.

Legend:
[1] = biological target: T1, PI3Kβ (Homo sapiens, UniProt P42338); assay: Enzyme binding assay (KINOMEscan, DiscoveRx); conditions: PIK3Cβ_h, read-out: Kd PIK3Cβ_h
T1 construct: purchased DiscoveRx Corporation, San Diego (contract service, KINOMEscan)
Procedure, shortened: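 KINOMEscan binding platform; read-out is the inhibitor binding constant Kd (nM).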

[2] = biological target: T2, PI3Kδ (Homo sapiens, UniProt O00329); assay: Enzyme binding assay (KINOMEscan, DiscoveRx); conditions: PIK3Cδ_h
T2 construct: purchased DiscoveRx Corporation, San Diego (contract service, KINOMEscan)
T2 sequence (O00329 1-1044): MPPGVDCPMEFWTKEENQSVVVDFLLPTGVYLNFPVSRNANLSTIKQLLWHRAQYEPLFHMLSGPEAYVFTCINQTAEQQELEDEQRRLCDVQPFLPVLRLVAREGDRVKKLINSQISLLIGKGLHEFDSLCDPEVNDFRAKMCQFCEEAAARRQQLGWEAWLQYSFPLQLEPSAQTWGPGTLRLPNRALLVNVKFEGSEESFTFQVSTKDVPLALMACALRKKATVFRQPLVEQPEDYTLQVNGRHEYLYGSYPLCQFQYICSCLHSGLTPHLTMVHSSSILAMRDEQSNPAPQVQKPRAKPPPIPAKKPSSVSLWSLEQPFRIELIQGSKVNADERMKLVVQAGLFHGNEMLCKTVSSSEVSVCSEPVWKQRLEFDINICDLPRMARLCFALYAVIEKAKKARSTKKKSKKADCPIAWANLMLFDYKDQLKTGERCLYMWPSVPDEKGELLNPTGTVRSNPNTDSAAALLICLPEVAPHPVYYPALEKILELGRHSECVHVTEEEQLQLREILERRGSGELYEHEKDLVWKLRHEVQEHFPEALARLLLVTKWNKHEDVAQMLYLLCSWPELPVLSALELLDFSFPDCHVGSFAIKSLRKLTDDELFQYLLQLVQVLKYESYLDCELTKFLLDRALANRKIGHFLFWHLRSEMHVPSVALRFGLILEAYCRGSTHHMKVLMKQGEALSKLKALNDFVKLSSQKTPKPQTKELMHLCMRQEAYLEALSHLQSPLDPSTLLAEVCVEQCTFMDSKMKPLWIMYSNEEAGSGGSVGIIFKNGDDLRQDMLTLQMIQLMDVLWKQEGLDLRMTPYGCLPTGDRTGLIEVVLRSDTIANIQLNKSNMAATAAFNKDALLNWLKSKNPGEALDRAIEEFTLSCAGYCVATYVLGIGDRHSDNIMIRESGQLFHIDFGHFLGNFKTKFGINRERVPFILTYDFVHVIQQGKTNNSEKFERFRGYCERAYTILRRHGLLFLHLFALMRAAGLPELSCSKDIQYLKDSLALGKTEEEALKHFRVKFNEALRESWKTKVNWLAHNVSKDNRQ
Procedure, shortened: (§1)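 KINOMEscan readout; values are kinase binding affinities.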

[3] = test system: Akt phosphorylated at Ser473 in PC-3 cells; assay: Cellular assay: phosphorylation of Akt at Ser473 in PC-3 cells (MSD ELISA); format: cell-based; conditions: PC-3 cells, 60 min compound incubation, MSD ELISA, read-out: IC50 pAkt_S473
Procedure, shortened: (§2)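 Phospho-Akt in whole-cell lysates is quantified by electrochemiluminescent immunoassay using phospho-site capture and total-Akt detection antibodies.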

[4] = test system: Akt phosphorylated at Thr308 in PC-3 cells; assay: Cellular assay: phosphorylation of Akt at Thr308 in PC-3 cells (MSD ELISA); format: cell-based; conditions: PC-3 cells, 60 min compound incubation, MSD ELISA, read-out: IC50 pAkt_Thr308
Procedure, shortened: as §2

[5] = biological target: T3, kinase enzymes (Homo sapiens, UniProt P42336); assay: Enzyme binding assay (KINOMEscan, DiscoveRx), further kinases of Table A; conditions: PIK3Cα_h
T3 construct: purchased DiscoveRx Corporation, San Diego (contract service, KINOMEscan)
T3 sequence (P42336 whole entry): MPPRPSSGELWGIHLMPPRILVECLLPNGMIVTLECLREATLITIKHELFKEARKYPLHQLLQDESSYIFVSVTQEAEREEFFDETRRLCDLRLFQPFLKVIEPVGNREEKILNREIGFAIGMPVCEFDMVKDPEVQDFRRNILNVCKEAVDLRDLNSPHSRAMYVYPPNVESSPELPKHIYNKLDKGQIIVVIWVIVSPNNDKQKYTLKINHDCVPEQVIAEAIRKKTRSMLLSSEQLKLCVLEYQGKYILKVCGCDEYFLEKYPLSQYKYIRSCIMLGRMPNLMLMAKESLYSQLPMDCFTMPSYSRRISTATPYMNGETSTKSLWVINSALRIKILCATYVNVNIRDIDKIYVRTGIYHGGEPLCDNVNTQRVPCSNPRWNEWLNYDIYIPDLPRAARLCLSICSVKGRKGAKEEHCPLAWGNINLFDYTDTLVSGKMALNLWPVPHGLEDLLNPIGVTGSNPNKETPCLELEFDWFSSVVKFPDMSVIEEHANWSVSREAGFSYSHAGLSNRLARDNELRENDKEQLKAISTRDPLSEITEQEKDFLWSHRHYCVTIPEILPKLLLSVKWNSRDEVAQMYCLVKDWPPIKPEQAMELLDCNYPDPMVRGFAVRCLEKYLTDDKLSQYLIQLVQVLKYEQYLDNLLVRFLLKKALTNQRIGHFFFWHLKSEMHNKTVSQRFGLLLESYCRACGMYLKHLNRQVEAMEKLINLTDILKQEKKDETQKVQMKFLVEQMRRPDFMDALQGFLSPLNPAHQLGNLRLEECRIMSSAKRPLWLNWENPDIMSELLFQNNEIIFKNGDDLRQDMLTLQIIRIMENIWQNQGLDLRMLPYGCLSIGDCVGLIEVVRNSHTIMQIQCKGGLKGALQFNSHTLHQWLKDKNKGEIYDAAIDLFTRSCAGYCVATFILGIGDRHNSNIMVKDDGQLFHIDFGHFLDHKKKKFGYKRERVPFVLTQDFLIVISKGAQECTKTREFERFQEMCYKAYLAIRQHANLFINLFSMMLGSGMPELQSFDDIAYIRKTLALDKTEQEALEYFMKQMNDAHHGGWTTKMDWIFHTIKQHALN
Procedure, shortened: as §1

[6] = biological target: T4, kinase enzymes (Homo sapiens, UniProt P48736); assay: as above; conditions: PIK3Cγ_h
T4 construct: purchased DiscoveRx Corporation, San Diego (contract service, KINOMEscan)
T4 sequence (P48736 whole entry): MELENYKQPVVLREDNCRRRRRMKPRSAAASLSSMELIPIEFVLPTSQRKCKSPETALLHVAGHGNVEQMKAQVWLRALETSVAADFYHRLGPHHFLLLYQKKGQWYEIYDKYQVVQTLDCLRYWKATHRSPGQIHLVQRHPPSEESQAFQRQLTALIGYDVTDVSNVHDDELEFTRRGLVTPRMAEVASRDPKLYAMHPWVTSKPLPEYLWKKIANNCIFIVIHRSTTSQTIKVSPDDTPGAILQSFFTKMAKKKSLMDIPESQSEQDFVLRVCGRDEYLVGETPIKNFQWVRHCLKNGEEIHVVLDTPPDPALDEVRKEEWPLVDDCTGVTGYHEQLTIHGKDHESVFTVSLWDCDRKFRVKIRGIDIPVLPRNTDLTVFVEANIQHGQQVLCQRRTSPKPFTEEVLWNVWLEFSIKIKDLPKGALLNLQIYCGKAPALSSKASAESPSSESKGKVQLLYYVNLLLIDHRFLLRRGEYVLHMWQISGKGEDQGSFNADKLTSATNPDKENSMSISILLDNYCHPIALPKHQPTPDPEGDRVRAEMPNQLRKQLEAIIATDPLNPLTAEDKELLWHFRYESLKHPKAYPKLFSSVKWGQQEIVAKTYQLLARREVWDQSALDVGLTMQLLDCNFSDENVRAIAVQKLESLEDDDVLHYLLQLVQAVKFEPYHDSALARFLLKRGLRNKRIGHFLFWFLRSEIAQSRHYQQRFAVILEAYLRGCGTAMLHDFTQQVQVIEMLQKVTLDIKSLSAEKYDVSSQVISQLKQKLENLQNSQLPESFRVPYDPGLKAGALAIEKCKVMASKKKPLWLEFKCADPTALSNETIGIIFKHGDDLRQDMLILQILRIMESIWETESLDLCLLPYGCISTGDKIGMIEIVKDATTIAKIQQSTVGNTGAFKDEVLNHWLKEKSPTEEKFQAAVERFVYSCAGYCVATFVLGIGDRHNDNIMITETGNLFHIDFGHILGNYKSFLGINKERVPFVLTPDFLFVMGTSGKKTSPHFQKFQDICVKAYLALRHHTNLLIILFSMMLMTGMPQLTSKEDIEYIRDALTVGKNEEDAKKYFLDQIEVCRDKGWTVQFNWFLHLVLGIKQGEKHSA
Procedure, shortened: as §1

[7] = biological target: T5, kinase enzymes (Homo sapiens, UniProt P42345); assay: as above; conditions: MTOR_h
T5 construct: purchased DiscoveRx Corporation, San Diego (contract service, KINOMEscan)
Procedure, shortened: as §1

T1 sequence (P42338 whole entry): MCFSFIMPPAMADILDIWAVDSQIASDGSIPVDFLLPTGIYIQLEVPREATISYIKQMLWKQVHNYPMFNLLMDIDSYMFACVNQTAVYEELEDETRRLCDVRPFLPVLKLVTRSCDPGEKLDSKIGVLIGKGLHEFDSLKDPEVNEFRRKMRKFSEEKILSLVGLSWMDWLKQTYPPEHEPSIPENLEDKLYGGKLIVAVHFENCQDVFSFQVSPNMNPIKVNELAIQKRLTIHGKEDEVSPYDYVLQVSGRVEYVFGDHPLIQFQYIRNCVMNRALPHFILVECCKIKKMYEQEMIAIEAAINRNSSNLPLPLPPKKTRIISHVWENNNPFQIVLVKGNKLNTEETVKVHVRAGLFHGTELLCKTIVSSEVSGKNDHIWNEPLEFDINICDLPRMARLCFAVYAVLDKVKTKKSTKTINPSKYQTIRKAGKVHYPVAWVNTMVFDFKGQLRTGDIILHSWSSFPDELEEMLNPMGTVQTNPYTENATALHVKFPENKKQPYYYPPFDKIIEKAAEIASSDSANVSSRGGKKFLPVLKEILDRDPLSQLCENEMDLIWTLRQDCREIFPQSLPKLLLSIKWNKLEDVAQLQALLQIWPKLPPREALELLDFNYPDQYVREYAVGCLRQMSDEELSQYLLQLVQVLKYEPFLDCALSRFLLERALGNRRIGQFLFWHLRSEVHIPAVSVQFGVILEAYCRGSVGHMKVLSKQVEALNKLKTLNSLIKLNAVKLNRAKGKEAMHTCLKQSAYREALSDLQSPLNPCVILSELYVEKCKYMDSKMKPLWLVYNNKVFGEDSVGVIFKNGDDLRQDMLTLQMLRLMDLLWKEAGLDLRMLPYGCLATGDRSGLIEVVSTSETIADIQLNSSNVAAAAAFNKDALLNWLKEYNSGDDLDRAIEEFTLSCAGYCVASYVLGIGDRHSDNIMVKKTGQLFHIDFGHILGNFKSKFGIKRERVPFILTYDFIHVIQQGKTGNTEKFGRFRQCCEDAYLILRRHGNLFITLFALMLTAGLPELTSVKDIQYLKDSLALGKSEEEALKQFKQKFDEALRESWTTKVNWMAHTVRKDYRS

SMILES	Kd [1]	Kd [2]	IC50 [3]	melting point	IC50 [4]	Kd [5]	Kd [6]	Kd [7]	IC50 ([3]; Homo sapiens, PC-3, 1 h)	IC50 ([4]; Homo sapiens, PC-3, 1 h)
CC(Oc1ccccc1)c1cc(C(=O)N(C)C)cc2ncc(N3CCOCC3)nc12 (centres unmarked) [Compound 151]	8 nM	813 nM		80 °C		3.63 µM	8.71 µM	> 30.2 µM	490 nM	66 nM
CC(Oc1cccc(F)c1)c1cc(C(=O)N2CCC[C@H]2CO)cc2ncc(N3CCOCC3)nc12 (single isomer, unassigned) [Compound 87]	1380 nM	9550 nM	> 513 nM	74 °C	> 513 nM	22.9 µM	> 30.2 µM	> 30.2 µM		
CC(Nc1cc(F)cc(F)c1)c1cc(CN2CC3(C2)CS(=O)(=O)C3)cc2ncc(N3CCOCC3)nc12 (single isomer, unassigned) [Compound 161]	776 nM	> 30200 nM	> 513 nM	228 °C	> 513 nM	> 30.2 µM	> 30.2 µM	> 30.2 µM		
O=C(NCCO)c1cc(NCc2cccc(F)c2C2CCNCC2)c2nc(N3CCOCC3)cnc2c1 [Compound 317]	13 nM	708 nM		167 °C		6.17 µM	20.9 µM	> 30.2 µM	> 513 nM	> 513 nM
CC(C)NCc1cc(F)cc(N2CCCC2c2cc(C(=O)N(C)C)cc3ncc(N4CCOCC4)nc23)c1 (centres unmarked) [Compound 49]	16 nM	933 nM		80 °C		2.19 µM	7.59 µM	> 30.2 µM	> 513 nM	468 nM
CC(C)NCCNC(=O)c1cc(C(C)Nc2cc(F)c(F)c(F)c2)c2nc(N3CCOCC3)cnc2c1 (single isomer, unassigned) [Compound 283a]	7 nM	1550 nM		173 °C		12 µM	19.1 µM	> 30.2 µM	81 nM	52 nM
CC(Oc1cc(F)cc(F)c1)c1cc(-c2cnc[nH]2)cc2ncc(N3CCOCC3)nc12 (single isomer, unassigned) [Compound 22]	5620 nM	18600 nM	> 513 nM	183 °C	> 513 nM	15.1 µM	> 30.2 µM	21.9 µM		
CC(Nc1cccc(F)c1)c1cc(C(=O)N2CCC[C@H]2CO)cc2ncc(N3CCOCC3)nc12 (single isomer, unassigned) [Compound 116]	2880 nM	≥ 30200 nM	> 513 nM	332 °C	> 513 nM	> 30.2 µM	> 30.2 µM	> 30.2 µM		
CN(C)C(=O)c1cc(C(CO)N(C)c2cccc(F)c2)c2nc(N3CCOCC3)cnc2c1 (centres unmarked) [Compound 301]	43 nM	3240 nM		315 °C		5.37 µM	1.51 µM	15.1 µM	> 513 nM	427 nM
Cc1c(F)cccc1CN(C)c1cc(C(=O)N2CC3(C2)CS(=O)(=O)C3)cc2ncc(N3CCOCC3)nc12 [Compound 308]	324 nM	7240 nM		195 °C		> 30.2 µM	> 30.2 µM	> 30.2 µM	> 513 nM	> 513 nM
CC(Nc1cccc(F)c1)c1cc(C(=O)NC[C@@H](C)O)cc2ncc(N3CCOCC3)nc12 (single isomer, unassigned) [Compound 338a]	11 nM	1070 nM	115 nM	89.8 °C	68 nM	1.51 µM	7.24 µM	25.7 µM		

The next compounds have a lower Kd [1] than those just listed; values first:

Kd [1]	Kd [2]	IC50 [3]	melting point	IC50 [4]	Kd [5]	Kd [6]	Kd [7]	IC50 ([3]; Homo sapiens, PC-3, 1 h)	IC50 ([4]; Homo sapiens, PC-3, 1 h)	SMILES
0.4 nM	75 nM	18 nM	218 °C	9 nM	0.276 µM	1.14 µM	26.3 µM			CC(Nc1cc(F)cc(F)c1)c1cc(C(=O)N(C)C)cc2ncc(N3CCOCC3)nc12 (single isomer, unassigned) [Compound 12]
1 nM	295 nM		130 °C		4.27 µM	5.13 µM	> 30.2 µM	105 nM	85 nM	CC(Nc1ccc(F)c(F)c1)c1cc(C(=O)NC[C@H]2CCCN2)cc2ncc(N3CCOCC3)nc12 (some centres unmarked) [Compound 376]
1 nM	58 nM		80 °C		0.269 µM	1.62 µM	> 30.2 µM	22 nM	14 nM	CN(C)C(=O)c1cc(C2CCCN2c2ccccc2)c2nc(N3CCOCC3)cnc2c1 (centres unmarked) [Compound 27]
1 nM	162 nM	~110 nM	90 °C	~85 nM	2.75 µM	5.49 µM	> 30.2 µM			CNCCOCCN(C)C(=O)c1cc(C(C)Nc2cc(F)c(F)c(F)c2)c2nc(N3CCOCC3)cnc2c1 (single isomer, unassigned) [Compound 315b]
1 nM	204 nM		80 °C		0.955 µM	2.4 µM	> 30.2 µM	174 nM	~62 nM	COCCN(C)Cc1cc(C2CCCN2c2cc(F)cc(F)c2)c2nc(N3CCOCC3)cnc2c1 (centres unmarked) [Compound 112]
